# Test results from patent US20230149393A1, “INHIBITORS OF TRPC6 FOR TREATING RESPIRATORY CONDITIONS” (Boehringer Ingelheim International GmbH, priority 2020, published 2023).
# Assays:
# [1] = Phase 1 study, healthy adults; cited from earlier work
# [2] = test system: virus Influenza A (strain: PR8/34/H1N1); assay: Reduction of H1N1-induced vascular leakage in a mouse model (BALF Evans blue); assay type: in vivo, Mice; settings: 3 mg/kg p.o., 2 h after inoculation and once daily day 1 to day 4; day 6 after inoculation
# Experimental: Mice were inoculated intranasally with 200 PFU (Plaque Formation Unit) of virus Influenza A (strain: PR8/34/H1N1). […] was given at 3 mg/kg p.o. 2 h after inoculation and once daily from day 1 to day 4. Evans blue was injected intravenously on day 6, 30 min prior to the euthanasia. […] The supernatant was collected for the measurement of Evans blue by spectrophotometry at the absorbance of 620 nm
# At day 6 after inoculation, H1N1 induced lung vascular leakage characterized by an increase in Evans blue extravasation from the blood to the BALF.
# [3] = test system: LPS-induced vascular leakage; assay: Reduction of LPS-induced vascular leakage in a mouse model (BALF protein); settings: FIGS. 1A, 1B and 1C; LPS aerosol mouse model
# PASMC = settings: cited from earlier work
# TRPC6 = settings: lung tissue of IPAH patients; cited from earlier work
compound,measurement,setting,value
COc1cc(C(=O)N2CCC(c3ccc(N)nn3)CC2)ncc1Oc1ccc(F)cc1 [BI 764198],tolerability,[1],well tolerated
"COc1cc(C(=O)N2CCC(c3ccc(N)nn3)CC2)ncc1Oc1ccc(F)cc1 [Compound 17, [4-(6-Amino-pyridazin-3-yl)-piperidin-1-yl]-[5-(4-fluoro-phenoxy)-4-methoxy-pyridin-2-yl]-methanone]",reduction of BALF Evans blue,[2],24%
same,pulmonary vascular leakage,[3],significantly reduces pulmonary vascular leakage
COc1ccccc1Oc1c(NS(=O)(=O)c2ccc(C(C)(C)C)cc2)nc(-c2ncccn2)nc1OCCO [bosentan],proliferation of PASMC,PASMC,decreases proliferation of PASMC
same,expression of TRPC6,TRPC6,decreases expression of TRPC6
